Experiment: Stability study of lyophilized Compound I with mannitol (Method A / Method B samples)
Type: physicochemical
Protocol: […] Each 30 mL Type I, clear glass sample vial with 20 mm Freeze Dry Stoppers (Flurotech™ coated) contained 150 mg of Compound I.
At each time point, a vial was removed from the stored condition and reconstituted with 10 mL of D5W and analyzed by HPLC method as discussed in Example 5 at 1 month, 2 months, 3 months, and/or 6 months. In Tables 18-18e, RRT matches the Compounds as shown below.
Sample Preparation—Method A: 10% Mannitol solution was prepared by weighing 200 g±1.0 g of mannitol into glass beaker, adding approximately 1500 mL of WFI (water for injection) to the beaker and stirring until mannitol was dissolved. The mannitol solution was transferred to a 2 L volumetric flask and made to volume with WFI, then poured back to the original beaker to sir and mix further. 1M HCl solution was prepared by adding 16.4 mL of HCl (37%) to a 200 mL volumetric flask containing approximately 100 mL of WFI, adding WFI to make 200 mL in volume, and inverting to mix the prepared solution.
To a tared 2 L Schott bottle containing a magnetic stirrer and wrapped in aluminum foil, 1020 g±1.0 g of the 10% mannitol solution was added. Then, 58.4 g±0.05 g of the 1M HCl solution was added to the 2 L Schott bottle and stirred for approximately 10 minutes. The solution prepared in the 2 L Schott bottle was purged with nitrogen which was continued throughout the manufacturing process. 30.22 g of Compound I (free base) was weighed then added to the 2 L Schott bottle containing 10% mannitol solution and 1 M HCl solution with continual magnetic stirring. The container used to weigh Compound I was rinsed with 3×10 mL of WFI and added to the Schott bottle. After Compound I dissolved (approximately 40 minutes), additional 650 g of WFI was added to the Schott bottle and the solution was stirred for approximately 10 minutes. The pH of the Compound I solution (in Schott bottle) was measured then adjusted to pH 4.5±0.1 using 1 M HCl solution. After each addition of 1 M HCl solution, the solution was stirred for several minutes prior to verifying the pH. Once the pH was adjusted, nitrogen purging was stopped. The pH adjusted Compound I solution was further diluted with WFI to a target weight of 2040 g±1.0 g and stirred.
The final solution (pH adjusted and diluted) was filtered (chain including PVD Fmembrane filter 0.45 μm and 0.22 μm; peristaltic filtration pump by Watson Marlow) in the Bigneat and the bottle containing the filtered solution was sealed. The filtered solution was pumped (Watson Marlow Flexicon PF6-B pump; 100 RPM) into 30 mL Schott Clear Glass vials (10.0 mL filtered solution each). The glass vials were partially stoppered with 20 mm Freeze Dry Stopper Flurotec (Daikyo Seiko) one vial at a time with sterilized utensils inside a fume hood (Envair B101+1.5R) and placed on freeze dryer trays. The freeze dryer trays were transferred into freeze dry chamber and vial probe was positioned (Lyostar II; FTS Kinetics). Lyophilization was performed using the lyophilization cycle listed below. After lyophilization cycle finished, the vials were back filled with N2 and the stopper was placed in situ, wiped down with isopropanol in the fume hood once removed from the freeze dryer, reconciled, then crimped. Seven vials out of 186 sample vials placed under the lyophilization cycle had smashed in the freeze dryer.
Sample Preparation—Method B (dissolved oxygen content ≤1 ppm): 2 L WFI was poured into a Schott bottled and degassed for 30 minutes with N2 until dissolved oxygen content was ≤1 ppm (dissolved oxygen meter and probe; Mettler Toledo). 10% Mannitol solution was prepared by adding […] of mannitol and 1000 mL of degassed WFI to a tared 2 L Schott bottle containing a magnetic stirrer and wrapped in aluminum foil. To the Schott bottle containing mannitol, 15 mL of 2M HCl was added and stirred for approximately 10 minutes. The resulting solution was sparged with N2 while stirring until dissolved oxygen content was ≤1 ppm (approx. 30 min). […]

[1] = Method A sample, 2-8° C./ambient % RH, 1 month
[2] = Method A sample, 2-8° C./ambient % RH, 2 months
[3] = Method A sample, 2-8° C./ambient % RH, 3 months
[4] = Method A sample, 2-8° C./ambient % RH, 6 months
[5] = Method A sample, 2-8° C./ambient % RH, 9 months
[6] = Method A sample, 2-8° C./ambient % RH, 12 months
[7] = Method A sample, 2-8° C./ambient % RH, 18 months
[8] = Method A sample, 2-8° C./ambient % RH, 24 months
[9] = Method A sample, 2-8° C./ambient % RH, 36 months
[10] = Method A sample, 2-8° C./ambient % RH, Initial
[11] = Method B sample, 5° C, 3 months
[12] = Method B sample, 5° C, 6 months

Cc1cnc(CNC(=O)c2c(=O)c3ccc(N4CCCN(C)CC4)nc3n3c2sc2ccccc23)cn1 [Compound I, 2-(4-Methyl-[1,4]diazepan-1-yl)-5-oxo-5H-7-thia-1,11b-diaza-benzo[c]fluorene-6-carboxylic acid (5-methyl-pyrazin-2-ylmethyl)-amide]
Appearance [1]: White powder
Appearance (Reconstituted Solution) [1]: Clear, colorless
Compound I by HPLC assay [1]: 101%
Reconstitution Time [1]: 54 s
Related Substances RRT 0.83 [1]: RRT 0.83: 0.41%
Related Substances RRT 0.88 [1]: RRT 0.88: 0.05%
Related Substances RRT 0.95A [1]: RRT 0.95A: 0.10%
Related Substances RRT 0.95B [1]: RRT 0.95B: 0.06%
Related Substances RRT 1.05 [1]: RRT 1.05: 0.18%
Related Substances RRT 1.08 [1]: RRT 1.08: 0.17%
Related Substances Total [1]: Total: 1.0%
Water Content [1]: 0.16%
pH [1]: 4.56
Appearance [2]: White powder
Appearance (Reconstituted Solution) [2]: Clear, colorless
Compound I by HPLC assay [2]: 101%
Reconstitution Time [2]: 55 s
Related Substances RRT 0.88 [2]: RRT 0.88: 0.06%
Related Substances RRT 0.95B [2]: RRT 0.95B: 0.06%
Related Substances RRT 1.05 [2]: RRT 1.05: 0.17%
Related Substances RRT 1.07 [2]: RRT 1.07: 0.15%
Related Substances Total [2]: Total: 0.4%
Water Content [2]: 0.20%
pH [2]: 4.51
Appearance [3]: White powder
Appearance (Reconstituted Solution) [3]: Clear, colorless
Compound I by HPLC assay [3]: 102%
Reconstitution Time [3]: 41 s
Related Substances RRT 0.88 [3]: RRT 0.88: 0.05%
Related Substances RRT 0.95A [3]: RRT 0.95A: 0.05%
Related Substances RRT 0.95B [3]: RRT 0.95B: 0.06%
Related Substances RRT 0.96 [3]: RRT 0.96: 0.06%
Related Substances RRT 1.05 [3]: RRT 1.05: 0.16%
Related Substances RRT 1.07 [3]: RRT 1.07: 0.20%
Related Substances Total [3]: Total: 0.6%
Water Content [3]: 0.16%
pH [3]: 4.45
Appearance [4]: White powder
Appearance (Reconstituted Solution) [4]: Clear, colorless
Compound I by HPLC assay [4]: 100%
Related Substances RRT 0.88 [4]: RRT 0.88: 0.09%
Related Substances RRT 0.89 [4]: RRT 0.89: 0.05%
Related Substances RRT 0.95B [4]: RRT 0.95B: 0.08%
Related Substances RRT 0.96 [4]: RRT 0.96: 0.07%
Related Substances RRT 1.05 [4]: RRT 1.05: 0.17%
Related Substances RRT 1.07 [4]: RRT 1.07: 0.28%
Related Substances Total [4]: Total: 0.7%
Water Content [4]: 0.64%
pH [4]: 4.25
Appearance [5]: White powder
Appearance (Reconstituted Solution) [5]: Clear, colorless
Compound I by HPLC assay [5]: 100%
Related Substances RRT 0.88 [5]: RRT 0.88: 0.06%
Related Substances RRT 0.95B [5]: RRT 0.95B: 0.06%
Related Substances RRT 0.96 [5]: RRT 0.96: 0.05%
Related Substances RRT 0.97 [5]: RRT 0.97: 0.07%
Related Substances RRT 1.05 [5]: RRT 1.05: 0.17%
Related Substances RRT 1.07 [5]: RRT 1.07: 0.27%
Related Substances Total [5]: Total: 0.7%
Water Content [5]: 0.17%
pH [5]: 4.46
Appearance [6]: White powder
Appearance (Reconstituted Solution) [6]: Clear, colorless
Compound I by HPLC assay [6]: 101%
Related Substances RRT 0.88 [6]: RRT 0.88: 0.09%
Related Substances RRT 0.89 [6]: RRT 0.89: 0.07%
Related Substances RRT 0.95B [6]: RRT 0.95B: 0.05%
Related Substances RRT 0.96 [6]: RRT 0.96: 0.10%
Related Substances RRT 0.97 [6]: RRT 0.97: 0.11%
Related Substances RRT 1.05 [6]: RRT 1.05: 0.17%
Related Substances RRT 1.07 [6]: RRT 1.07: 0.45%
Related Substances Total [6]: Total: 1.0%
Water Content [6]: 0.20%
pH [6]: 4.47
Appearance [7]: White powder
Appearance (Reconstituted Solution) [7]: Clear, colorless
Compound I by HPLC assay [7]: 98%
Related Substances RRT 0.88 [7]: RRT 0.88: 0.05%
Related Substances RRT 0.95B [7]: RRT 0.95B: 0.05%
Related Substances RRT 0.96 [7]: RRT 0.96: 0.06%
Related Substances RRT 0.97 [7]: RRT 0.97: 0.07%
Related Substances RRT 1.04 [7]: RRT 1.04: 0.05%
Related Substances RRT 1.05 [7]: RRT 1.05: 0.17%
Related Substances RRT 1.07 [7]: RRT 1.07: 0.20%
Related Substances Total [7]: Total: 0.6%
Water Content [7]: 0.24%
pH [7]: 4.23
Appearance [8]: White powder
Appearance (Reconstituted Solution) [8]: Clear, colorless
Compound I by HPLC assay [8]: 99%
Related Substances RPT 0.88 [8]: RPT 0.88: 0.06%
Related Substances RPT 0.95B [8]: RPT 0.95B: 0.05%
Related Substances RPT 0.96 [8]: RPT 0.96: 0.06%
Related Substances RPT 0.97 [8]: RPT 0.97: 0.08%
Related Substances RRT 0.89 [8]: RRT 0.89: 0.05%
Related Substances RRT 1.05 [8]: RRT 1.05: 0.17%
Related Substances RRT 1.07 [8]: RRT 1.07: 0.29%
Related Substances Total [8]: Total: 0.8%
Water Content [8]: 0.21%
pH [8]: 4.37
Appearance [9]: White powder
Appearance (Reconstituted Solution) [9]: Clear, colorless
Compound I by HPLC assay [9]: 101%
Related Substances RRT 0.88 [9]: RRT 0.88: 0.06%
Related Substances RRT 0.96 [9]: RRT 0.96: 0.06%
Related Substances RRT 0.97 [9]: RRT 0.97: 0.06%
Related Substances RRT 1.05 [9]: RRT 1.05: 0.18%
Related Substances RRT 1.07 [9]: RRT 1.07: 0.24%
Related Substances Total [9]: Total: 0.6%
Water Content [9]: 0.28%
pH [9]: 4.48
Appearance [10]: White powder
Appearance (Reconstituted Solution) [10]: Clear, colorless
Compound I by HPLC assay [10]: 101.5%
Related Substances RRT 1.05 [10]: RRT 1.05: 0.18%
Related Substances RRT 1.06 [10]: RRT 1.06: 0.08%
Related Substances RRT 1.08 [10]: RRT 1.08: 0.06%
Related Substances Total [10]: Total: 0.3%
Water Content [10]: 0.14%
pH [10]: 4.45
Appearance (Method B sample, 5° C, 1 month): White powder
Appearance (Reconstituted Solution) (Method B sample, 5° C, 1 month): Clear, colorless
Compound I by HPLC assay (Method B sample, 5° C, 1 month): 99.5%
Reconstitution Time (Method B sample, 5° C, 1 month): 60 s
Related Substances RRT 1.06 (Method B sample, 5° C, 1 month): RRT 1.06: 0.16%
Related Substances RRT 1.08 (Method B sample, 5° C, 1 month): RRT 1.08: 0.06%
Related Substances RRT 1.22 (Method B sample, 5° C, 1 month): RRT 1.22: 0.05%
Related Substances Total (Method B sample, 5° C, 1 month): Total: 0.3%
Water Content USP<921 Method 1c> (Method B sample, 5° C, 1 month): 1.51%
pH (USP<791>) (Method B sample, 5° C, 1 month): 4.4
Appearance [11]: Off-white powder
Appearance (Reconstituted Solution) [11]: Clear, colorless
Compound I by HPLC assay [11]: 101.2%
Related Substances RRT 0.17 [11]: RRT 0.17: 0.05%
Related Substances RRT 1.04 [11]: RRT 1.04: 0.08%
Related Substances RRT 1.05 [11]: RRT 1.05: 0.19%
Related Substances Total [11]: Total: 0.3%
Water Content USP<921 Method 1c> [11]: 1.19%
pH (USP<791>) [11]: 4.5
Appearance [12]: Off-white powder
Appearance (Reconstituted Solution) [12]: Clear, colorless
Compound I by HPLC assay [12]: 100.7%
Related Substances RRT 1.05 [12]: RRT 1.05: 0.13%
Related Substances Total [12]: Total: 0.1%
Water Content USP<921 Method 1c> [12]: 1.25%
pH (USP<791>) [12]: 4.5
Appearance (Method B sample, 5° C, Initial): White powder
Appearance (Reconstituted Solution) (Method B sample, 5° C, Initial): Clear, colorless
Compound I by HPLC assay (Method B sample, 5° C, Initial): 100.2%
Related Substances RRT 0.96 (Method B sample, 5° C, Initial): RRT 0.96: 0.05%
Related Substances RRT 1.04 (Method B sample, 5° C, Initial): RRT 1.04: 0.05%
Related Substances RRT 1.06 (Method B sample, 5° C, Initial): RRT 1.06: 0.17%
Related Substances RRT 1.08 (Method B sample, 5° C, Initial): RRT 1.08: 0.06%
Related Substances Total (Method B sample, 5° C, Initial): Total:0.3%
Water Content USP<921 Method 1c> (Method B sample, 5° C, Initial): 1.12%

From US11524012B1, “Quinolone analogs and their salts, compositions, and method for their use” (Senhwa Biosciences, Inc., priority 2018, dated 2022)
